According to a compilation of properties of binary mixtures (doi:10.1021/acs.jced.0c00588):

Experiment: xn = mol fraction of the nth substance listed
Conditions: 102 kPa

SMILES: O=C(O)C(F)(F)C(F)(F)C(F)(F)C(F)(F)F + CC[n+]1ccn(C)c1.[Cl-]
- viscosity (293.15 K, x2 = 0.3346): 35.2 mPa·s
- viscosity (293.15 K, x2 = 0.5026): 92.1 mPa·s
- viscosity (298.15 K, x2 = 0.3346): 29 mPa·s
- viscosity (298.15 K, x2 = 0.5026): 72.1 mPa·s
- viscosity (298.15 K, x2 = 0.6636): 213.4 mPa·s
- viscosity (303.15 K, x2 = 0.5026): 57.4 mPa·s
- viscosity (303.15 K, x2 = 0.6636): 158.1 mPa·s
- viscosity (308.15 K, x2 = 0.3346): 20.4 mPa·s
- viscosity (308.15 K, x2 = 0.5026): 46.4 mPa·s
- viscosity (308.15 K, x2 = 0.6636): 119.8 mPa·s
- viscosity (313.15 K, x2 = 0.5026): 38.2 mPa·s
- viscosity (313.15 K, x2 = 0.6636): 92.7 mPa·s
- viscosity (318.15 K, x2 = 0.3346): 14.99 mPa·s
- viscosity (318.15 K, x2 = 0.6636): 73 mPa·s
- viscosity (323.15 K, x2 = 0.3346): 13.02 mPa·s
- viscosity (323.15 K, x2 = 0.6636): 58.4 mPa·s
- viscosity (328.15 K, x2 = 0.3346): 11.4 mPa·s
- viscosity (328.15 K, x2 = 0.5026): 22.58 mPa·s
- viscosity (328.15 K, x2 = 0.6636): 47.5 mPa·s
- viscosity (333.15 K, x2 = 0.3346): 10.04 mPa·s
- viscosity (338.15 K, x2 = 0.6636): 32.6 mPa·s
- viscosity (343.15 K, x2 = 0.3346): 7.94 mPa·s
- viscosity (343.15 K, x2 = 0.5026): 14.53 mPa·s
- viscosity (343.15 K, x2 = 0.6636): 27.5 mPa·s
- viscosity (348.15 K, x2 = 0.3346): 7.13 mPa·s
- viscosity (348.15 K, x2 = 0.6636): 23.56 mPa·s
- viscosity (353.15 K, x2 = 0.5026): 11.25 mPa·s
- viscosity (353.15 K, x2 = 0.6636): 20.29 mPa·s
